In data set [1] the test system is ivyleaf morning glory. In words: Reference test example 2: soil surface treatment, herbicidal activity. In kind it is in vivo. As to conditions: soil surface spray of emulsifiable concentrate, 500 g/ha, examined 19 days after spraying, greenhouse. An excerpt: (§1) Cylindrical plastic pots, each of which has a diameter of 10 cm and a depth of 10 cm, were filled with soil, and then seeded with ivyleaf morning glory and velvetleaf. Each of the compounds 1, 2, 3, 6, 8, 12, 15, 16, 19, 21, 40, 59 and 76 was formulated into an emulsifiable concentrate according to Reference formulation example 2, and diluted with water. The dilution was uniformly sprayed over the soil surface with a sprayer at a rate of 1000 liters per hectare. After spraying, the test plants were grown in the greenhouse for 19 days, and the herbicidal activity was examined.

Data set [2] has as its system velvetleaf. The description is as above. In kind it is in vivo. As to conditions: soil surface spray of emulsifiable concentrate, 500 g/ha, examined 19 days after spraying, greenhouse.
Text: as §1

Data set [3] deals with ivyleaf morning glory. The data set can be described thus: Reference test example 1: foliar treatment, herbicidal activity. In kind it is in vivo. The settings on record: foliage spray of emulsifiable concentrate, 125 g/ha, examined 12 days after spraying, greenhouse. The protocol:
as §1, with “velvetleaf. The test plants were grown in a greenhouse for 10 days. Then, each” for “velvetleaf. Each”, “with water containing a spreading agent.” for “with water.”, “the foliage of the test plants” for “the soil surface”, “for 12” for “for 19”

In data set [4] the test system is velvetleaf. Described as above. In kind it is in vivo. As to conditions: foliage spray of emulsifiable concentrate, 125 g/ha, examined 12 days after spraying, greenhouse. The protocol:
as §1, with “velvetleaf. The test plants were grown in a greenhouse for 10 days. Then, each” for “velvetleaf. Each”, “with water containing a spreading agent.” for “with water.”, “the foliage of the test plants” for “the soil surface”, “for 12” for “for 19”

As to `Cn1c(C(F)(F)F)cc(=O)n(-c2cc(Oc3cccnc3OCC(=O)O)c(Cl)cc2F)c1=O` [Compound 1], the “herbicidal activity (control of growth)” value with ivyleaf morning glory [1], in the data set with velvetleaf [2], with ivyleaf morning glory [3] and in the data set with velvetleaf [4] was “perfectly controlled the growth” in each case.

For `COC(=O)COc1ncccc1Oc1cc(-n2c(=O)cc(C(F)(F)F)n(C)c2=O)c(F)cc1Cl` [Compound 2, 3-[2-chloro-4-fluoro-5-(3-methyl-2,6-dioxo-4-trifluoromethyl-1,2,3,6-tetrahydropyrimidin-1-yl)phenoxy]-2-(methoxycarbonylmethoxy)pyridine], the “herbicidal activity (control of growth)” value with ivyleaf morning glory [1], in the data set with velvetleaf [2], with ivyleaf morning glory [3] and in the data set with velvetleaf [4] was “perfectly controlled the growth” each time.

In the case of `COC(=O)COc1ncccc1Oc1cc(-n2c(=O)cc(C(F)(F)F)n(C)c2=O)c(F)cc1C#N` [Compound 40], the “herbicidal activity (control of growth)” value in the data set with ivyleaf morning glory [1], in the data set on velvetleaf [2], with ivyleaf morning glory [3] and in the data set on velvetleaf [4] was “perfectly controlled the growth” each time.

`COC(=O)COc1ncccc1Oc1cc(-n2c(=O)cc(C(F)(F)F)n(C)c2=O)c(F)cc1[N+](=O)[O-]` [Compound 59]: the “herbicidal activity (control of growth)” value in the data set with ivyleaf morning glory [1], in the data set on velvetleaf [2], with ivyleaf morning glory [3] and with velvetleaf [4] was “perfectly controlled the growth” each time.

Regarding `COC(=O)COc1ncccc1Oc1cc(-n2c(=O)cc(C(F)(F)F)n(C)c2=O)c(F)cc1Br` [Compound 21], the “herbicidal activity (control of growth)” value in the data set on ivyleaf morning glory [1], in the data set with velvetleaf [2], in the data set on ivyleaf morning glory [3] and with velvetleaf [4] was “perfectly controlled the growth” throughout.

As for `CCOC(=O)COc1ncccc1Oc1cc(-n2c(=O)cc(C(F)(F)F)n(C)c2=O)c(F)cc1Cl` [Compound 3, 3-[2-chloro-4-fluoro-5-(3-methyl-2,6-dioxo-4-trifluoromethyl-1,2,3,6-tetrahydropyrimidin-1-yl)phenoxy]-2-(ethoxycarbonylmethoxy)pyridine], the “herbicidal activity (control of growth)” value in the data set on ivyleaf morning glory [1], in the data set with velvetleaf [2], in the data set with ivyleaf morning glory [3] and in the data set with velvetleaf [4] was “perfectly controlled the growth” throughout.

With `Cn1c(C(F)(F)F)cc(=O)n(-c2cc(Oc3ccc[nH]c3=O)c(Cl)cc2F)c1=O` [Compound 76, 3-[2-chloro-4-fluoro-5-(3-methyl-2,6-dioxo-4-trifluoromethyl-1,2,3,6-tetrahydropyrimidin-1-yl)phenoxy]-1H-pyridin-2-one], the melting point (usually the temperature of the solid-liquid transition) is 180.8 °C. For the same molecule, the “herbicidal activity (control of growth)” value in the data set on ivyleaf morning glory [1] is given as “perfectly controlled the growth”. The “herbicidal activity (control of growth)” value in the data set with velvetleaf [2] is given as “perfectly controlled the growth”. Also, the “herbicidal activity (control of growth)” value in the data set with ivyleaf morning glory [3] is “perfectly controlled the growth”. Further, in the data set on velvetleaf [4], the “herbicidal activity (control of growth)” value is reported as “perfectly controlled the growth”.

Values taken from patent US7223862B2, “Pyridone compounds useful for producing pyridine compounds” (Sumitomo Chemical Company, Limited, priority 2001, dated 2007).
